In the NIST ThermoML archive (doi:10.1021/je201009c):
Numbers after ± are expanded uncertainties.

Experiment: refractive index (Na D-line) (dimensionless); xn = mol fraction of the nth substance listed
Conditions: Liquid, Standard Abbe refractometry

CC(=O)OCc1ccccc1 [benzyl ethanoate] + CCO
refractive index, 100.8 kPa
Conditions | 293.15 K | 303.15 K | 313.15 K | 323.15 K
x2 = 0 | 1.50245 ± 0.0011 | 1.49776 ± 0.0011 | 1.49309 ± 0.0011 | 1.48834 ± 0.0011
x2 = 0.0502 | 1.49958 ± 0.0011 | 1.49479 ± 0.0011 | 1.49006 ± 0.0011 | 1.48521 ± 0.0011
x2 = 0.1 | 1.49646 ± 0.0011 | 1.49168 ± 0.0011 | 1.48693 ± 0.0011 | 1.48205 ± 0.0011
x2 = 0.1498 | 1.49316 ± 0.001 | 1.48838 ± 0.001 | 1.48362 ± 0.001 | 1.47874 ± 0.001
x2 = 0.1998 | 1.48968 ± 0.001 | 1.48491 ± 0.001 | 1.48007 ± 0.001 | 1.47517 ± 0.001
x2 = 0.2499 | 1.48589 ± 0.001 | 1.48118 ± 0.001 | 1.47629 ± 0.001 | 1.47143 ± 0.001
x2 = 0.2998 | 1.4819 ± 0.001 | 1.47715 ± 0.001 | 1.47228 ± 0.001 | 1.46739 ± 0.001
x2 = 0.35 | 1.4776 ± 0.001 | 1.47284 ± 0.001 | 1.46794 ± 0.001 | 1.46309 ± 0.001
x2 = 0.4 | 1.47289 ± 0.001 | 1.46818 ± 0.001 | 1.46327 ± 0.001 | 1.45847 ± 0.001
x2 = 0.4501 | 1.46787 ± 0.001 | 1.46316 ± 0.001 | 1.45826 ± 0.001 | 1.45346 ± 0.001
x2 = 0.5 | 1.46245 ± 0.001 | 1.45772 ± 0.001 | 1.45286 ± 0.001 | 1.44807 ± 0.001
x2 = 0.5499 | 1.45652 ± 0.001 | 1.45179 ± 0.001 | 1.44703 ± 0.001 | 1.44215 ± 0.001
x2 = 0.6 | 1.44996 ± 0.001 | 1.44531 ± 0.001 | 1.44052 ± 0.001 | 1.43561 ± 0.001
x2 = 0.65 | 1.44279 ± 0.001 | 1.43815 ± 0.001 | 1.43339 ± 0.001 | 1.42851 ± 0.001
x2 = 0.7 | 1.43481 ± 0.001 | 1.43018 ± 0.001 | 1.42552 ± 0.001 | 1.42067 ± 0.001
x2 = 0.7499 | 1.42603 ± 0.001 | 1.42142 ± 0.001 | 1.41682 ± 0.001 | 1.41198 ± 0.001
x2 = 0.7999 | 1.41623 ± 0.001 | 1.41163 ± 0.001 | 1.40711 ± 0.001 | 1.40231 ± 0.001
x2 = 0.85 | 1.40518 ± 0.001 | 1.40062 ± 0.001 | 1.39617 ± 0.001 | 1.39132 ± 0.001
x2 = 0.9 | 1.39263 ± 0.001 | 1.38811 ± 0.001 | 1.38375 ± 0.001 | 1.37895 ± 0.001
x2 = 0.95 | 1.3782 ± 0.001 | 1.37384 ± 0.001 | 1.36951 ± 0.001 | 1.36489 ± 0.001

CC(=O)OCc1ccccc1 [benzyl ethanoate] + OCc1ccccc1
refractive index, 101 kPa
Conditions | 293.15 K | 303.15 K | 313.15 K | 323.15 K
x1 = 0.05 | 1.53821 ± 0.00033 | 1.5339 ± 0.00033 | 1.52962 ± 0.00033 | 1.52532 ± 0.00033
x1 = 0.1001 | 1.53584 ± 0.00033 | 1.53143 ± 0.00033 | 1.52715 ± 0.00033 | 1.52278 ± 0.00033
x1 = 0.1502 | 1.53352 ± 0.00033 | 1.52903 ± 0.00033 | 1.52471 ± 0.00033 | 1.5203 ± 0.00033
x1 = 0.2001 | 1.53127 ± 0.00033 | 1.52673 ± 0.00033 | 1.52235 ± 0.00033 | 1.51791 ± 0.00033
x1 = 0.25 | 1.52907 ± 0.00034 | 1.52449 ± 0.00034 | 1.52007 ± 0.00034 | 1.5156 ± 0.00034
x1 = 0.3 | 1.52689 ± 0.00034 | 1.52231 ± 0.00034 | 1.51785 ± 0.00034 | 1.51335 ± 0.00034
x1 = 0.3498 | 1.5248 ± 0.00034 | 1.52022 ± 0.00034 | 1.51571 ± 0.00034 | 1.51118 ± 0.00034
x1 = 0.4001 | 1.52279 ± 0.00034 | 1.51819 ± 0.00034 | 1.51362 ± 0.00034 | 1.50908 ± 0.00034
x1 = 0.45 | 1.52083 ± 0.00034 | 1.51621 ± 0.00034 | 1.5116 ± 0.00034 | 1.50704 ± 0.00034
x1 = 0.5 | 1.51893 ± 0.00035 | 1.51428 ± 0.00035 | 1.50964 ± 0.00035 | 1.50506 ± 0.00035
x1 = 0.5501 | 1.5171 ± 0.00035 | 1.51239 ± 0.00035 | 1.50774 ± 0.00035 | 1.50314 ± 0.00035
x1 = 0.6001 | 1.5153 ± 0.00035 | 1.51057 ± 0.00035 | 1.5059 ± 0.00035 | 1.50128 ± 0.00035
x1 = 0.65 | 1.51352 ± 0.00035 | 1.50881 ± 0.00035 | 1.5041 ± 0.00035 | 1.49946 ± 0.00035
x1 = 0.6999 | 1.51182 ± 0.00035 | 1.50711 ± 0.00035 | 1.50237 ± 0.00035 | 1.49771 ± 0.00035
x1 = 0.7502 | 1.51014 ± 0.00036 | 1.50545 ± 0.00036 | 1.5007 ± 0.00036 | 1.49598 ± 0.00036
x1 = 0.8 | 1.50852 ± 0.00036 | 1.50383 ± 0.00036 | 1.49906 ± 0.00036 | 1.49434 ± 0.00036
x1 = 0.85 | 1.50696 ± 0.00036 | 1.50227 ± 0.00036 | 1.49748 ± 0.00036 | 1.49276 ± 0.00036
x1 = 0.9 | 1.50544 ± 0.00036 | 1.50075 ± 0.00036 | 1.49596 ± 0.00036 | 1.49124 ± 0.00036
x1 = 0.95 | 1.50396 ± 0.00037 | 1.49926 ± 0.00037 | 1.4945 ± 0.00037 | 1.48976 ± 0.00037
x1 = 1 | 1.50245 ± 0.00037 | 1.49776 ± 0.00037 | 1.49309 ± 0.00037 | 1.48834 ± 0.00037

OCc1ccccc1 [benzenemethanol] + CCO
refractive index, 100.8 kPa
Conditions | 293.15 K | 303.15 K | 313.15 K | 323.15 K
x2 = 0 | 1.54049 ± 0.001 | 1.53635 ± 0.001 | 1.53215 ± 0.001 | 1.52796 ± 0.001
x2 = 0.05 | 1.53607 ± 0.001 | 1.53175 ± 0.001 | 1.52743 ± 0.001 | 1.52308 ± 0.001
x2 = 0.1 | 1.53119 ± 0.001 | 1.52681 ± 0.001 | 1.5225 ± 0.001 | 1.51807 ± 0.001
x2 = 0.1504 | 1.52584 ± 0.001 | 1.5215 ± 0.001 | 1.51718 ± 0.001 | 1.51273 ± 0.001
x2 = 0.1999 | 1.52041 ± 0.001 | 1.51591 ± 0.001 | 1.51156 ± 0.001 | 1.50721 ± 0.001
x2 = 0.2502 | 1.51444 ± 0.001 | 1.51002 ± 0.001 | 1.5056 ± 0.001 | 1.50123 ± 0.001
x2 = 0.3003 | 1.50804 ± 0.001 | 1.50367 ± 0.001 | 1.49935 ± 0.001 | 1.49494 ± 0.001
x2 = 0.3499 | 1.50154 ± 0.001 | 1.49716 ± 0.001 | 1.49265 ± 0.001 | 1.48825 ± 0.001
x2 = 0.3998 | 1.49454 ± 0.001 | 1.49014 ± 0.001 | 1.48568 ± 0.001 | 1.48127 ± 0.001
x2 = 0.45 | 1.48707 ± 0.001 | 1.4826 ± 0.001 | 1.47818 ± 0.001 | 1.47378 ± 0.001
x2 = 0.5001 | 1.4791 ± 0.001 | 1.47469 ± 0.001 | 1.4703 ± 0.001 | 1.46589 ± 0.001
x2 = 0.55 | 1.47074 ± 0.001 | 1.46632 ± 0.001 | 1.46191 ± 0.001 | 1.45755 ± 0.001
x2 = 0.5999 | 1.46176 ± 0.001 | 1.45731 ± 0.001 | 1.45296 ± 0.001 | 1.44855 ± 0.001
x2 = 0.65 | 1.4522 ± 0.001 | 1.4477 ± 0.001 | 1.44333 ± 0.001 | 1.43892 ± 0.001
x2 = 0.6997 | 1.44199 ± 0.001 | 1.43754 ± 0.001 | 1.43309 ± 0.001 | 1.4287 ± 0.001
x2 = 0.75 | 1.43095 ± 0.001 | 1.42651 ± 0.001 | 1.42212 ± 0.001 | 1.41775 ± 0.001
x2 = 0.7999 | 1.41922 ± 0.001 | 1.41479 ± 0.001 | 1.4104 ± 0.001 | 1.40607 ± 0.001
x2 = 0.8496 | 1.40661 ± 0.001 | 1.40202 ± 0.001 | 1.39761 ± 0.001 | 1.39329 ± 0.001
x2 = 0.8998 | 1.39275 ± 0.001 | 1.38825 ± 0.001 | 1.38389 ± 0.001 | 1.37963 ± 0.001
x2 = 0.95 | 1.37776 ± 0.001 | 1.37331 ± 0.001 | 1.36905 ± 0.001 | 1.36475 ± 0.001
